Data set [1] is described as follows: in vitro. Particulars: human, hepatocytes.
Data set [2] in a line: in vitro. As to conditions: rat, hepatocytes.
Another data set can be described thus: physchem. Particulars: buffer, pH 7.4.
For data set [3] the following is noted: human, plasma.
Description: Fraction unbound in human plasma by equilibrium dialysis method
Data set [4] concerns the target T1, Estrogen receptor (Homo sapiens, UniProt P03372).
T1 sequence (P03372 whole entry): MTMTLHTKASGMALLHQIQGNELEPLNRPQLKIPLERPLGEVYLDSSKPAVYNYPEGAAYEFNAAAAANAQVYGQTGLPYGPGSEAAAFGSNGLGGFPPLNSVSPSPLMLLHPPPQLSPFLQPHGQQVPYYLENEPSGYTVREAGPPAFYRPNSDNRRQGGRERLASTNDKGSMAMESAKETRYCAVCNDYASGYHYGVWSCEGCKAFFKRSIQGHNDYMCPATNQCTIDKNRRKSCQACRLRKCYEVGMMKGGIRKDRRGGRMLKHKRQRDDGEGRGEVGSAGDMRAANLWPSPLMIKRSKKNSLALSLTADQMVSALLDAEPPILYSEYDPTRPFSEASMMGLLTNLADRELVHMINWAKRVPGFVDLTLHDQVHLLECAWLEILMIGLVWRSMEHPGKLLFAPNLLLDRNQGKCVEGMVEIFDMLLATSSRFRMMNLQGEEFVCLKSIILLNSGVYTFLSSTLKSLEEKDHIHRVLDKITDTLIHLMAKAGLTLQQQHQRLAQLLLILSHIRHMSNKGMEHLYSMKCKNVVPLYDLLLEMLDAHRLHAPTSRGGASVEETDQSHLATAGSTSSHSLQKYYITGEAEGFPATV
Description: Induction of ERalpha degradation in human MCF7 cells assessed as downregulation of ER alpha receptor expression measured after 18 to 22 hrs by immunofluorescence assay

For data set [5], the target named is T1, Estrogen receptor. The data set can be described thus: biochemical.
Description: Displacement of fluorescent labelled fluormone ES2 from human recombinant GST tagged ER alpha LBD ( 282 to 595 residues) expressed in baculovirus infected insect cells measured after 20 mins by TR-FRET Lanthascreen assay
Data set [6] in a line: Stability of the compound assessed as parent compound remaining in buffer at pH 7.4 measured after 4 days by 1H-NMR analysis. It counts as physicochemical. As to conditions: read-out: Stability.
Data set [7] can be described thus: Half-life in rat at 0.5 mg/kg, iv. It counts as ADME, organism-based. Particulars: in vivo.
The next data set addresses Cytochrome P450 2D6 (Homo sapiens, UniProt P10635). Nature of the data set: Inhibition of CYP2D6 (unknown origin). It is filed as ADME.
Another data set deals with Cytochrome P450 2C9 (Homo sapiens, UniProt P11712). Nature of the data set: Inhibition of CYP2C9 (unknown origin). It counts as ADME.
Chain of Cytochrome P450 2C9 (P11712 whole entry): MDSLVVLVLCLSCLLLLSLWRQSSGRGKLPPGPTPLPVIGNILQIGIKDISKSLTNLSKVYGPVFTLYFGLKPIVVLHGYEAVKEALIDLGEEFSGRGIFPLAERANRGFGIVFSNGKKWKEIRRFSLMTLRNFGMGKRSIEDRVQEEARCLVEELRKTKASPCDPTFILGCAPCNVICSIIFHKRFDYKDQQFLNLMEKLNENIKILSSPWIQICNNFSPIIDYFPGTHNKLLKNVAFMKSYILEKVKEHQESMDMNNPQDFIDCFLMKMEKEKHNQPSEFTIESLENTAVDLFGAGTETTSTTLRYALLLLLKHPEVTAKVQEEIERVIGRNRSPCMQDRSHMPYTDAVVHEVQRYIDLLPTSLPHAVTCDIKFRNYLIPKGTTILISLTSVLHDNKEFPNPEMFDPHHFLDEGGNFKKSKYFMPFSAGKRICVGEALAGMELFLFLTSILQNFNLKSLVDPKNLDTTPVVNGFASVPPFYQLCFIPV
A short description of data set [8]: Stability of the compound assessed as parent compound remaining in buffer at pH 7.4 measured after 3 days by 1H-NMR analysis. It counts as physicochemical. As to conditions: read-out: Stability.
Data set [9] in a line: Aqueous solubility of the compound in phosphate buffer at pH 7.4 at 25 degC after 24 hrs. It is filed as physicochemical.
Data set [10] is described as follows: AUC in rat at 1 mg/kg, po. It is filed as ADME, organism-based. Particulars: in vivo.
The nature of data set [11]: Volume of distribution at steady state in rat at 0.5 mg/kg, iv or 1 mg/kg, po. It is filed as ADME, organism-based. Particulars: in vivo, read-out: Vdss.
The target of another data set is Cytochrome P450 2C19 (Homo sapiens, UniProt P33261). Nature of the data set: Inhibition of CYP2C19 (unknown origin). It is filed as ADME.
Chain of Cytochrome P450 2C19 (P33261 whole entry): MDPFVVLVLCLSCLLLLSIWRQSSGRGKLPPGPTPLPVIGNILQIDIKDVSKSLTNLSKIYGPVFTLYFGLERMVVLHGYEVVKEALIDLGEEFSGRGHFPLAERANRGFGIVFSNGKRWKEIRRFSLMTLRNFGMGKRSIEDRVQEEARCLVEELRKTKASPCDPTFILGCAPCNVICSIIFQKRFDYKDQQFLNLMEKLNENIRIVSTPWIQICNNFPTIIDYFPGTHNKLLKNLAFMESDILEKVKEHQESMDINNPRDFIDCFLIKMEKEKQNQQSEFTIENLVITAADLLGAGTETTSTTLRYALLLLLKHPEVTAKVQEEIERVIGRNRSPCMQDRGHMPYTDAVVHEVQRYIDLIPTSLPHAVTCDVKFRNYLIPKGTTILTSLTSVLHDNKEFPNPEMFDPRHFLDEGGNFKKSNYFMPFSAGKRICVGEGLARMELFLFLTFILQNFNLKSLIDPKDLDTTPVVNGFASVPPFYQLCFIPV
The nature of data set [12]: Acid dissociation constant, pKa of the compound in potassium chloride at 20 degC by UV absorption analysis. It is filed as physicochemical.
The nature of data set [13]: Oral bioavailability in rat at 1 mg/kg. It is filed as ADME, organism-based. As to conditions: in vivo.
Data set [14] is described as follows: Half-life in rat at 1 mg/kg, po. It is filed as ADME, organism-based. As to conditions: in vivo.
For the next data set, the target named is Cytochrome P450 3A4 (Homo sapiens, UniProt P08684). Nature of the data set: Inhibition of CYP3A4 (unknown origin). It is filed as ADME.
Chain of Cytochrome P450 3A4 (P08684 whole entry): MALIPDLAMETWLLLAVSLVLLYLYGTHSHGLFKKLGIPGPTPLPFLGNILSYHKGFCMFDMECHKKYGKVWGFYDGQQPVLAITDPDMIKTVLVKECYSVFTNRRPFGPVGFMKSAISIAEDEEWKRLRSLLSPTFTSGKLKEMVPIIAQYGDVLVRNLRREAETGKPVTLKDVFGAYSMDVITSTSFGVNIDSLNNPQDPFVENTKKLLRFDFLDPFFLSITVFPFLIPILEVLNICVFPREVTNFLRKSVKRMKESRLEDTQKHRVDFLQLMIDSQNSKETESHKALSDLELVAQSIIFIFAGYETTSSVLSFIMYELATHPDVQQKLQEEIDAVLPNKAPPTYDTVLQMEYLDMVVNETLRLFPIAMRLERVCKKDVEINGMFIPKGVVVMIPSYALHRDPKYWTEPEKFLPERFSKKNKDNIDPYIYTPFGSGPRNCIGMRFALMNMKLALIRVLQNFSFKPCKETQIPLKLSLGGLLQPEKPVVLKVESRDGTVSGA
Another data set deals with T2, Cytochrome P450 1A2 (Homo sapiens, UniProt P05177).
T2 sequence (P05177 whole entry): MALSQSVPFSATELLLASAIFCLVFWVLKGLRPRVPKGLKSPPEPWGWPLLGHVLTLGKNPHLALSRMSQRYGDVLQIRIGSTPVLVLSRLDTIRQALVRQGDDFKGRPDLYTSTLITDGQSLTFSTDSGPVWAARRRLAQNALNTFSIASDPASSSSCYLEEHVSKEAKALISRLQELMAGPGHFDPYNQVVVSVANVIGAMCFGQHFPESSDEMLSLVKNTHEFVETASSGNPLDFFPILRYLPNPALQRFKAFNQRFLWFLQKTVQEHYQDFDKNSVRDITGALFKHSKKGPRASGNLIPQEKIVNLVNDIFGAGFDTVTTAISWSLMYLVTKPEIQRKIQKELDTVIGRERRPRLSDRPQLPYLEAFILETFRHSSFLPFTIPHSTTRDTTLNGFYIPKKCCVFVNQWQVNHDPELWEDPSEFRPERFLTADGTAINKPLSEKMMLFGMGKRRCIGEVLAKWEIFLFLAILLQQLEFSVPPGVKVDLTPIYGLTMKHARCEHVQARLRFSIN
Nature of the data set: Inhibition of CYP1A2 (unknown origin). It counts as ADME.

Data set [15] in a line: Base dissociation constant, pKa of the compound in potassium chloride at 20 degC by UV absorption analysis. It is filed as physicochemical.
The nature of data set [16]: Plasma clearance in rat at 0.5 mg/kg, iv or 1 mg/kg, po. It counts as ADME, organism-based.
Data set [17] in a line: Stability of the compound assessed as parent compound remaining in buffer at pH 7.4 measured after 8 days by 1H-NMR analysis. It counts as physicochemical. Particulars: read-out: Stability.

In brackets after ≈: the same amount, converted by molar mass.

Usually hepatocyte CLint stands for the rate of metabolic loss divided by the concentration. Higher therefore signals rapid turnover. By logD is commonly meant the decadic logarithm of the distribution of all forms, ionised or not, between an organic phase and buffer at a given pH. Low values mean a more hydrophilic compound, high ones a more lipophilic compound. In general, IC50 refers to the midpoint of a concentration-inhibition curve. A higher IC50 goes with lower potency. What is called half-life is how long it takes for the measured level to halve. Read a low half-life as rapid decline. What is called solubility is the dissolved amount per volume that the medium holds. The AUC is the area under the concentration-time curve, a measure of exposure. A lower AUC goes with less exposure. One may read the pKa as the negative logarithm of the acid dissociation constant. A low value points to a stronger acid or weaker base. In general, bioavailability refers to dose-corrected exposure relative to a reference, in per cent. A low value points to poor availability.

Chain of Cytochrome P450 2D6 (P10635 whole entry): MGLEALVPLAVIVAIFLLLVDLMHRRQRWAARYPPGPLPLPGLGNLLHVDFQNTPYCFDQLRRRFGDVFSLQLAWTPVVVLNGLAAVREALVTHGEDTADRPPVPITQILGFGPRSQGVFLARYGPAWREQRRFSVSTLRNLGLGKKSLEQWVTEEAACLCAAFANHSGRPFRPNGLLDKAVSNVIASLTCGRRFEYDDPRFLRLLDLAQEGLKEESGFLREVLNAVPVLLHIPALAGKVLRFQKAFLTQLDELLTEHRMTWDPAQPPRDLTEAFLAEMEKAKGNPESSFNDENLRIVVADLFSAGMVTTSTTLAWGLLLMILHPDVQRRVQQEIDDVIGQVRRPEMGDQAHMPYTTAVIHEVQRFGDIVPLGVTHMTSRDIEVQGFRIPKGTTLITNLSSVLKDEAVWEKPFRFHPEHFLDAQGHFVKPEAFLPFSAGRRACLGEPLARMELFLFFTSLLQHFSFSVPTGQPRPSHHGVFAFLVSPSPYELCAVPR

As for `C[C@@H]1Cc2c([nH]c3ccccc23)[C@@](C)(c2c(F)cc(/C=C/C(=O)O)cc2F)N1CC(C)(C)F`, the hepatocyte CLint in “in vitro [1]” was 13 µL/min/1e6 cells; in the data set “in vitro [2]”, 9 µL/min/1e6 cells. Moreover, in the data set “physchem”, the logD stood at 2.7. The compound further showed a Fu in data set [3] of 0.28%. In addition, the values for the IC50 against Estrogen receptor [4] and against Estrogen receptor [5] were 1.26 nM and 0.398 nM, respectively. Further, the remaining at 96 h in data set [6] turned out to be 58%.
For the compound `CC(C)(F)CN1[C@@H]2CCC[C@@]1(c1c(F)cc(/C=C/C(=O)O)cc1F)c1[nH]c3ccccc3c1C2`, the half-life in data set [7] was 2.8 h; in data set [14], 3.1 h. In addition, the IC50 is over 30000 nM against Cytochrome P450 2D6; over 30000 nM against Cytochrome P450 2C9; over 30000 nM at Cytochrome P450 2C19; 15.8 nM against Estrogen receptor [4]; over 30000 nM against Cytochrome P450 3A4; 0.794 nM on Estrogen receptor [5]. At Cytochrome P450 1A2, this compound had an IC50 of over 30000 nM. The values for the hepatocyte CLint in “in vitro [1]” and in “in vitro [2]” were 8 µL/min/1e6 cells and 26 µL/min/1e6 cells, respectively. For the same compound, the remaining at 72 h in data set [8] was 100%. Further, the solubility at 24 h in data set [9] came out at 734 µM (≈ 344 µg/mL). Also, the AUC in data set [10] was 2.7 µM·h. For the same compound, the Vd in [11] was found to be 1.6 L/kg. In the data set “physchem”, this compound registered a logD of 2.9. Moreover, the figures for the pKa in data set [12] and in [15] were 3.8 and 5.7, respectively. Also, in [13], the bioavailability was found to be 100%. In [3], the Fu stood at 0.45%. Further, in data set [16], the clearance came to 10 mL/min/kg.
As for `CC(C)(F)CN1[C@@H]2CCC[C@@]1(c1c(F)cc(OCCN3CC(CF)C3)cc1F)c1[nH]c3ccccc3c1C2`, the hepatocyte CLint in “in vitro [1]” turned out to be 4 µL/min/1e6 cells; in the data set “in vitro [2]”, 17 µL/min/1e6 cells. The remaining at 192 h in data set [17] is 100%. Further, the logD in the data set “physchem” worked out at 5.3. This compound gave a Fu in data set [3] of 0.17%. For the same compound, the IC50 against Estrogen receptor [4] and against Estrogen receptor [5] was 2 nM each time.
`C[C@@H]1Cc2c([nH]c3ccccc23)[C@@H](c2c(F)cc(OCCN3CC(CF)C3)cc2F)N1CC(C)(C)F` showed a hepatocyte CLint in “in vitro [1]” of under 1 µL/min/1e6 cells. The remaining at 192 h in [17] is 100%. In “physchem”, this compound showed a logD of over 4.4.
Turning to `CC(C)(F)CN1[C@@H]2C=CC[C@@]1(c1c(F)cc(/C=C/C(=O)O)cc1F)c1[nH]c3ccccc3c1C2`, the values for the intrinsic metabolic clearance (hepatocyte CLint) in “in vitro [1]” and in the data set “in vitro [2]” were 14 µL/min/1e6 cells and 8 µL/min/1e6 cells, respectively. For the same compound, in [17], the remaining at 192 h came out at 100%. In addition, the logD in “physchem” is 2.8. This compound yielded a Fu in [3] of 0.3%. In addition, the results for the IC50 against Estrogen receptor [4] and at Estrogen receptor [5] were 1.58 nM and 0.631 nM, respectively.
`C[C@@H]1Cc2c([nH]c3ccccc23)[C@@](C)(c2c(F)cc(OCCN3CC(CF)C3)cc2F)N1CC(C)(C)F`: the intrinsic metabolic clearance (hepatocyte CLint) in the data set “in vitro [2]” came out at 18 µL/min/1e6 cells. In addition, the remaining at 192 h in data set [17] was 75%. Also, the logD in “physchem” was over 4.4. Besides, the Fu in data set [3] is 0.05%. The IC50 against Estrogen receptor [4] is 0.251 nM; against Estrogen receptor [5], 1 nM.
For `C[C@@H]1Cc2c([nH]c3ccccc23)[C@@H](c2c(F)cc(/C=C/C(=O)O)cc2F)N1CC(C)(C)F` [AZD-9496], the results for the hepatocyte CLint in “in vitro [1]” and in “in vitro [2]” were 31 µL/min/1e6 cells and 5 µL/min/1e6 cells, respectively. The remaining at 72 h in data set [8] came out at 92%. For the same compound, in data set [3], the Fu is given as 0.26%.
